Experimental data from patent publication US20230399312A1, “SUBSTITUTED PYRIMIDINES AND METHODS OF USE” (THERAVANCE BIOPHARMA R&D IP, LLC, priority 2020, published 2023).

Experiments:
[1] = test system: TGF-β-stimulated SMAD3 phosphorylation in BEAS-2B cells; assay: Cellular ALK5 potency assay, inhibition of TGF-β stimulated pSMAD3 formation in BEAS-2B cells; type: cell-based; conditions: Homo sapiens, pSMAD3, TGF-β 10 ng/mL, read-out: BEAS2B pIC50 (converted)
Outline: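 Cells were seeded overnight, rinsed into HEPES/BSA-supplemented HBSS, and dosed with serially diluted compound for 1 h at 37 °C, 5% CO2. TGF-β stimulation (10 ng/mL final) followed for 30 min, then lysis and AlphaLISA pSMAD3 measurement; potency reported as pIC50.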

[2] = target: T1, recombinant human ALK5 (TGF-βR1) protein (Homo sapiens, UniProt P36897); assay: Biochemical ALK5 (TGF-βR1) assay to measure pKi (LANCE Ultra ULight kinase assay); conditions: apparent pKi, converted from pIC50 by Cheng-Prusoff
T1 construct: purchased Life Technologies PR9075A
T1 sequence (P36897 34-503): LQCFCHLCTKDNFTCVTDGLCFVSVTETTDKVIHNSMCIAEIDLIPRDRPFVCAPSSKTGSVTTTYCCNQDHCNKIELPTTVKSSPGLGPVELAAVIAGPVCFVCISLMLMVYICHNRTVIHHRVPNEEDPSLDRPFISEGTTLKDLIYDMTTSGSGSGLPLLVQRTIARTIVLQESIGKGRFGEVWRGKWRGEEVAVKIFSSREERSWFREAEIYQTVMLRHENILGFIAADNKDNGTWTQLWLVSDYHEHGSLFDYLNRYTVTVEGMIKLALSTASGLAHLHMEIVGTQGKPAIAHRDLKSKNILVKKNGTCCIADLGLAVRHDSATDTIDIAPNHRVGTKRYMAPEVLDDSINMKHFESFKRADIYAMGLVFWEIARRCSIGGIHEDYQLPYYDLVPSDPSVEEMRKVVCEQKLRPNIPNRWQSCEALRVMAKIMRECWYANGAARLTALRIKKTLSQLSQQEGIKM
Outline: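 Enzyme was preincubated with compound for 60 min at room temperature, then ATP (added from a 125 μM 5× stock with 2 mM DTT) started a 60 min reaction at 37 °C. EDTA plus Eu-anti-phospho-Topo2α (Thr1342) antibody stopped it; TR-FRET pIC50 values were converted to pKi by Cheng-Prusoff.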

| Ki [2] [nM] | Structure (SMILES) | IC50 [1] [nM] |
| --- | --- | --- |
| 0.0398 to 0.316 | Cc1cccc(-c2nccc(Nc3ccnc(Nc4ccc(CN5CCN(CCO)CC5)cc4)n3)n2)n1 [Compound 301, 2-[4-[[4-[[4-[[2-(6-methyl-2-pyridyl)pyrimidin-4-yl]amino]pyrimidin-2-yl]amino]phenyl]methyl]piperazin-1-yl]ethanol] | 25.1 to 158 |
| 0.398 to 3.16 | CNC1CCN(c2ccc(Nc3nccc(Nc4ccnc(-c5ccccc5F)n4)n3)cc2)CC1 [Compound 90, N4-[2-(2-fluorophenyl)pyrimidin-4-yl]-N2-[4-[4-(methylamino)-1-piperidyl]phenyl]pyrimidine-2,4-diamine] | 25.1 to 158 |
| 0.0398 to 0.316 | Cc1cccc(-c2nccc(Nc3ccnc(Nc4ccc(C5COCCN5)cc4)n3)n2)n1 (stereo not shown) [Compound 351, N4-[2-(6-methyl-2-pyridyl)pyrimidin-4-yl]-N2-(4-morpholin-3-ylphenyl)pyrimidine-2,4-diamine] | ≤ 20 |
| 3.98 to 31.6 | Cc1cccc(-c2nccc(Nc3ccnc(Nc4ccc(C(=O)OCCN5CCNCC5)cn4)n3)n2)n1 [Compound 581, 2-piperazin-1-ylethyl 6-[[4-[[2-(6-methyl-2-pyridyl)pyrimidin-4-yl]amino]pyrimidin-2-yl]amino]pyridine-3-carboxylate] | 25.1 to 158 |
| 0.0398 to 0.316 | Cc1cccc(-c2nccc(Nc3ccnc(Nc4cncc(CN5CC(C(=O)O[C@H]6CCNC6)C5)c4)n3)n2)n1 [Compound 573, [(3S)-pyrrolidin-3-yl] 1-[[5-[[4-[[2-(6-methyl-2-pyridyl)pyrimidin-4-yl]amino]pyrimidin-2-yl]amino]-3-pyridyl]methyl]azetidine-3-carboxylate] | 25.1 to 158 |
| 0.0398 to 0.316 | CNCCN1CCN(c2ccc(Nc3nccc(Nc4ccnc(-c5cccc(C)n5)n4)n3)cc2)CC1 [Compound 483, N2-[4-[4-[2-(methylamino)ethyl]piperazin-1-yl]phenyl]-N4-[2-(6-methyl-2-pyridyl)pyrimidin-4-yl]pyrimidine-2,4-diamine] | 200 to 1260 |
| 0.0398 to 0.316 | Cc1cccc(-c2nccc(Nc3ccnc(Nc4csc(C(=O)OC[C@H]5CCCN5)c4)n3)n2)n1 [Compound 583, [(2R)-pyrrolidin-2-yl]methyl 4-[[4-[[2-(6-methyl-2-pyridyl)pyrimidin-4-yl]amino]pyrimidin-2-yl]amino]thiophene-2-carboxylate] | 25.1 to 158 |
| 0.398 to 3.16 | COC(=O)c1ccc(Nc2nccc(Nc3ccnc(-c4cccc(C)n4)n3)n2)cc1 [Compound 62, methyl 4-[[4-[[2-(6-methyl-2-pyridyl)pyrimidin-4-yl]amino]pyrimidin-2-yl]amino]benzoate] | 25.1 to 158 |
| 0.398 to 3.16 | Cc1cccc(-c2nccc(Nc3ccnc(Nc4ccc(S(=O)(=O)N5CCN(C(=O)NC(C)C)CC5)cc4)n3)n2)n1 [Compound 107, N-isopropyl-4-[4-[[4-[[2-(6-methyl-2-pyridyl)pyrimidin-4-yl]amino]pyrimidin-2-yl]amino]phenyl]sulfonyl-piperazine-1-carboxamide] | 200 to 1260 |
| 0.0398 to 0.316 | Cc1cccc(-c2nccc(Nc3ccnc(Nc4ccc(CN5CC(C(=O)O)C5)nc4)n3)n2)n1 [Compound 569, 1-[[5-[[4-[[2-(6-methyl-2-pyridyl)pyrimidin-4-yl]amino]pyrimidin-2-yl]amino]-2-pyridyl]methyl]azetidine-3-carboxylic acid] | 200 to 1260 |
| 0.0398 to 0.316 | Cc1cccc(-c2nccc(Nc3ccnc(Nc4ccc(-c5cn6c(n5)CNCC6)cc4)n3)n2)n1 [Compound 232, N4-[2-(6-methyl-2-pyridyl)pyrimidin-4-yl]-N2-[4-(5,6,7,8-tetrahydroimidazo[1,2-a]pyrazin-2-yl)phenyl]pyrimidine-2,4-diamine] | 25.1 to 158 |
| 0.0398 to 0.316 | Cc1cccc(-c2nccc(Nc3ccnc(Nc4ccc(N5CCC(N6CCN(C)CC6)CC5)cc4)n3)n2)n1 [Compound 4, N2-[4-[4-(4-methylpiperazin-1-yl)-1-piperidyl]phenyl]-N4-[2-(6-methyl-2-pyridyl)pyrimidin-4-yl]pyrimidine-2,4-diamine] | 25.1 to 158 |
| 0.398 to 3.16 | Cc1cccc(-c2nccc(Nc3ccnc(Nc4ccc(CO)cc4)n3)n2)n1 [Compound 388, [4-[[4-[[2-(6-methyl-2-pyridyl)pyrimidin-4-yl]amino]pyrimidin-2-yl]amino]phenyl]methanol] | ≤ 20 |
| 0.0398 to 0.316 | Cc1cccc(-c2nccc(Nc3ccnc(Nc4ccc(C)c(CN5CCSCC5)c4)n3)n2)n1 [Compound 361, N4-[2-(6-methyl-2-pyridyl)pyrimidin-4-yl]-N2-[4-methyl-3-(thiomorpholinomethyl)phenyl] pyrimidine-2,4-diamine] | 25.1 to 158 |
| 0.0398 to 0.316 | Cc1cccc(-c2nccc(Nc3ccnc(Nc4cc(C(=O)O[C@H]5CCN(C)C5)cs4)n3)n2)n1 [Compound 345, [(3S)-1-methylpyrrolidin-3-yl] 5-[[4-[[2-(6-methyl-2-pyridyl)pyrimidin-4-yl]amino]pyrimidin-2-yl]amino]thiophene-3-carboxylate] | 25.1 to 158 |
| 0.0398 to 0.316 | CC(=O)N(CC1CNC1)c1ccc(Nc2nccc(Nc3ccnc(-c4cccc(C)n4)n3)n2)cc1 [Compound 353, N-(azetidin-3-ylmethyl)-N-[4-[[4-[[2-(6-methyl-2-pyridyl)pyrimidin-4-yl]amino]pyrimidin-2-yl]amino]phenyl]acetamide] | 25.1 to 158 |
| 0.0398 to 0.316 | Cc1cccc(-c2nccc(Nc3ccnc(Nc4ccc(CN5CCC[C@@H](C(=O)OCC6CNC6)C5)cc4)n3)n2)n1 [Compound 400, azetidin-3-ylmethyl (R)-1-(4-((4-((2-(6-methylpyridin-2-yl)pyrimidin-4-yl)amino)pyrimidin-2-yl)amino)benzyl)piperidine-3-carboxylate] | 25.1 to 158 |
| 0.398 to 3.16 | Cc1cccc(-c2nccc(Nc3ccnc(Nc4ccc5c(c4)CCCN5)n3)n2)n1 [Compound 492, N4-[2-(6-methyl-2-pyridyl)pyrimidin-4-yl]-N2-(1,2,3,4-tetrahydroquinolin-6-yl)pyrimidine-2,4-diamine] | 25.1 to 158 |
| 0.0398 to 0.316 | Cc1cccc(-c2nccc(Nc3ccnc(Nc4ccc(F)c(CN5CCN(C)CC5)c4)n3)n2)n1 [Compound 244, N2-[4-fluoro-3-[(4-methylpiperazin-1-yl)methyl]phenyl]-N4-[2-(6-methyl-2-pyridyl)pyrimidin-4-yl]pyrimidine-2,4-diamine] | 25.1 to 158 |
| 0.398 to 3.16 | Cc1cccc(-c2nccc(Nc3ccnc(Nc4cccc(C(=O)OCC5CNC5)c4)n3)n2)n1 [Compound 178, azetidin-3-ylmethyl 3-((4-((2-(6-methylpyridin-2-yl)pyrimidin-4-yl)amino)pyrimidin-2-yl)amino)benzoate] | 25.1 to 158 |
| 0.0398 to 0.316 | Cc1cccc(-c2nccc(Nc3ccnc(Nc4ccc(CN5CCC(C(=O)OC6CNC6)CC5)cc4)n3)n2)n1 [Compound 17, azetidin-3-yl 1-[[4-[[4-[[2-(6-methyl-2-pyridyl)pyrimidin-4-yl]amino]pyrimidin-2-yl]amino]phenyl]methyl] piperidine-4-carboxylate] | 25.1 to 158 |
| 0.0398 to 0.316 | Cc1cccc(-c2nccc(Nc3ccnc(Nc4ccc(N5CCC(C(=O)OC6CCNCC6)CC5)cc4)n3)n2)n1 [Compound 218, 4-piperidyl 1-[4-[[4-[[2-(6-methyl-2-pyridyl)pyrimidin-4-yl]amino]pyrimidin-2-yl]amino]phenyl]piperidine-4-carboxylate] | 25.1 to 158 |
| 0.398 to 3.16 | Cc1cccc(-c2nccc(Nc3ccnc(Nc4nc(C(=O)O[C@H]5CCN(C)C5)cs4)n3)n2)n1 [Compound 323, [(3S)-1-methylpyrrolidin-3-yl] 2-[[4-[[2-(6-methyl-2-pyridyl)pyrimidin-4-yl]amino]pyrimidin-2-yl]amino]thiazole-4-carboxylate] | 25.1 to 158 |
| 0.0398 to 0.316 | Cc1cccc(-c2nccc(Nc3ccnc(Nc4ccc(C(=O)OC5CCCNCC5)nc4)n3)n2)n1 (stereo not shown) [Compound 596, azepan-4-yl 5-[[4-[[2-(6-methyl-2-pyridyl)pyrimidin-4-yl]amino]pyrimidin-2-yl]amino]pyridine-2-carboxylate] | 200 to 1260 |
| 0.0398 to 0.316 | Cc1cccc(-c2nccc(Nc3ccnc(Nc4ccc(C(=O)O[C@@H]5CC[C@@H](C)NC5)nc4)n3)n2)n1 [Compound 567, [(3R,6R)-6-methyl-3-piperidyl] 5-[[4-[[2-(6-methyl-2-pyridyl)pyrimidin-4-yl]amino]pyrimidin-2-yl]amino]pyridine-2-carboxylate] | 25.1 to 158 |

| Structure (SMILES) | Ki [2] [nM] | IC50 [1] [nM] |
| --- | --- | --- |
| Cc1cccc(-c2nccc(Nc3ccnc(Nc4ccc(CN5C[C@H]6CC[C@@H](C5)N6)cc4)n3)n2)n1 [Compound 75, N4-[2-(6-methyl-2-pyridyl)pyrimidin-4-yl]-N2-[4-[[rac-(1S,5R)-3,8-diazabicyclo[3.2.1]octan-3-yl]methyl]phenyl]pyrimidine-2,4-diamine] | 0.0398 to 0.316 | 25.1 to 158 |
